Measurements: patent US20240025849A1 (MAX DELBRÜCK-CENTRUM FÜR MOLEKULARE MEDIZIN IN DER …, priority 2020, published 2024)
Like-named read-outs stand apart in the source and are kept apart here.

System: primary cultured neonatal microglia
Experiment: LPS induced NO release, Griess assay, laboratory scaled setup;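 for active: compounds at or above the IC50 cutoff were called inactive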
Format: cell-based, mouse
Conditions: for IC50: Mus musculus, Microglia
Description: Primary cultured neonatal microglia. For preparation of cultured neonatal microglia, P0-P3 mice were used. 10 brains were extracted, meninges and cerebellum were removed and put on ice with Hank's balanced salt solution (HBSS). The dissected brains were washed 3 times before adding 400 μL trypsin (0.1 mg/L) and DNAse (5 μg/L) in phosphate buffered saline (PBS). After 2 min of incubation with this solution, the reaction was blocked by adding plain medium. After removal of the medium, 1 mg DNAse was added and the cells were mechanically dissociated, with a Pasteur pipette followed by a glass pipette. The cells were centrifuged for 10 min at 129 g at 4° C. The supernatant was discarded. The pellet was resuspended in plain medium and plated (2.5 brains/flask) in Poly-L-Lysine coated flasks. The cells were washed after 2 days with PBS and incubated for another 7 days in plain medium. Afterwards the medium was replaced by plain medium with 33% L929 conditioned medium. After 2 days, cells were harvested by shaking them for 30 min at 150 rpm. The supernatant was centrifuged for 10 min at 129 g at 4° C. The cells were plated into a 96 well plate (100 000 cells/well, 200 μL medium per well). This procedure could be repeated 2 times with a 2 day interval.
Griess assay. Cells were seeded according to the protocols described above, after compounds and stimuli were added, 100 μl of supernatant was transferred into a new 96 well plate and 100 μl freshly mixed Griess reagent were added. Griess reagent was composed of reagent A (100 mg Naphthylethylene in 50 ml aqua dest.) and reagent B (1 g Sulfanilamide, […] H3PO4 (85%) in 44 mL aqua dest.) mixed 1:1. The solution was carefully mixed and the absorbance was determined in a microplate reader at a wavelength of 550 nm.
Dissolved sodium nitrite in plain medium served as a standard. Total amount of nitrite was calculated by a linear regression of the standard curve.
The activity of the compounds listed in column 1 of Table 1 as inhibitors of NO production was compared in murine primary cultured neonatal microglia as described above.

[1] = inhibitors of NO production, murine primary cultured neonatal microglia, read-out: IC50
[2] = inhibitors of NO production, murine primary cultured neonatal microglia, read-out: activity class (IC50)
[3] = inhibitors of NO production, murine primary cultured neonatal microglia

Compound	IC50 [1] [nM]	IC50 [2] [nM]	IC50 (0.002 to 20 μM, FIG. 9, read-out: IC50, LPS induced NO production (stereoisomers)) [nM]	active [3]	inhibitory effect in the NO release assay (FIG. 9)
COc1ccc(NC(=O)[C@@H](NC(=O)[C@@H]2CCCN2C(=O)CCc2ccccc2)c2ccc(OC)cc2)cc1 [Compound 13]	151	< 200	–	YES	–
COc1ccc(NC(=O)[C@@H](NC(=O)[C@@H]2CCCN2C(=O)CCc2ccoc2)c2ccc(OC)cc2)cc1 [Compound 14, (S)-1-(3-(furan-3-yl)propanoyl)-N—((S)-1-(4-methoxyphenyl)-2-((4-methoxyphenyl)amino)-2-oxoethyl)pyrrolidine-2-carboxamide]	147	< 200	–	YES	–
COc1ccc(NC(=O)[C@@H](NC(=O)[C@@H]2CCCN2C(=O)CCC2CCOCC2)c2ccc(OC)cc2)cc1 [Compound 15, (S)—N—((S)-1-(4-methoxyphenyl)-2-((4-methoxyphenyl)amino)-2-oxoethyl)-1-(3-(tetrahydro-2H-pyran-4-yl)propanoyl)pyrrolidine-2-carboxamide]	117	< 200	–	YES	–
COc1ccc(NC(=O)[C@@H](NC(=O)[C@@H]2CCCN2C(=O)CCc2cccs2)c2ccc(OC)cc2)cc1 [Compound 16, (S)—N—((S)-1-(4-methoxyphenyl)-2-((4-methoxyphenyl)amino)-2-oxoethyl)-1-(3-(thiophen-2-yl)propanoyl)pyrrolidine-2-carboxamide]	122	< 200	–	YES	–
COc1ccc(NC(=O)[C@@H](NC(=O)[C@@H]2CCCN2C(=O)OCc2ccccc2)c2ccccc2)cc1 [Compound 17, benzyl (S)-2-(((S)-2-((4-methoxyphenyl)amino)-2-oxo-1-phenylethyl)carbamoyl)pyrrolidine-1-carboxylate]	122	< 200	–	YES	–
COc1ccc(NC(=O)[C@@H](NC(=O)[C@@H]2CCCN2C(=O)OCc2ccccc2)c2ccc(OC)cc2)cc1 [Compound 18, (S)-benzyl-2-((S)—(4-methoxyphenylcarbamoyl)(4-methoxyphenyl)methylcarbamoyl)pyrrolidine-1-carboxylate]	107	< 200	100	YES	shows an inhibitory effect
COc1ccc(NC(=O)[C@@H](NC(=O)[C@@H]2CCCN2C(=O)CC2CCCCC2)c2ccc(OC)cc2)cc1 [Compound 19, (S)-1-(2-cyclohexylacetyl)-N—((S)-1-(4-methoxyphenyl)-2-((4-methoxyphenyl)amino)-2-oxoethyl)pyrrolidine-2-carboxamide]	208	< 1000	–	YES	–
COc1ccc(NC(=O)[C@@H](NC(=O)[C@@H]2CCCN2C(=O)CCC(C)C)c2ccc(OC)cc2)cc1 [Compound 20, (S)—N—((S)-1-(4-methoxyphenyl)-2-((4-methoxyphenyl)amino)-2-oxoethyl)-1-(4-methylpentanoyl)pyrrolidine-2-carboxamide]	203	< 1000	–	YES	–
COc1ccc(NC(=O)[C@@H](NC(=O)[C@@H]2CCCN2C(=O)CCc2cn(C)c3ccccc23)c2ccc(OC)cc2)cc1 [Compound 21, (S)—N—((S)-1-(4-methoxyphenyl)-2-((4-methoxyphenyl)amino)-2-oxoethyl)-1-(3-(1-methyl-1H-indol-3-yl)propanoyl)pyrrolidine-2-carboxamide]	259	< 1000	–	YES	–
COc1ccc([C@H](NC(=O)[C@@H]2CCCN2C(=O)OCc2ccccc2)C(=O)Nc2ccc3c(c2)CCO3)cc1 [Compound 22, benzyl-(S)-2-(((S)-2-((2,3-dihydrobenzofuran-5-yl)amino)-1-(4-methoxyphenyl)-2-oxoethyl)carbamoyl)pyrrolidine-1-carboxylate]	231	< 1000	–	YES	–
COc1ccc(NC(=O)[C@@H](NC(=O)[C@@H]2CCCN2C(=O)C2CCCCC2)c2ccc(OC)cc2)cc1 [Compound 23, (S)-1-(cyclohexanecarbonyl)-N—((S)-1-(4-methoxyphenyl)-2-((4-methoxyphenyl)amino)-2-oxoethyl)pyrrolidine-2-carboxamide]	1080	< 10000	–	YES	–
COc1ccc(NC(=O)[C@@H](NC(=O)[C@@H]2CCCN2C(=O)c2ccccc2)c2ccc(OC)cc2)cc1 [Compound 24, (S)-1-benzoyl-N—((S)-1-(4-methoxyphenyl)-2-((4-methoxyphenyl)amino)-2-oxoethyl)pyrrolidine-2-carboxamide]	1100	< 10000	–	YES	–
COc1ccc(NC(=O)[C@@H](NC(=O)[C@@H]2CCCN2C(=O)CCc2ccccn2)c2ccc(OC)cc2)cc1 [Compound 25, (S)—N—((S)-1-(4-methoxyphenyl)-2-((4-methoxyphenyl)amino)-2-oxoethyl)-1-(3-(pyridin-2-yl)propanoyl)pyrrolidine-2-carboxamide]	6880	< 10000	–	YES	–
COc1ccc([C@H](NC(=O)[C@@H]2CCCN2C(=O)OCc2ccccc2)C(=O)Nc2cnc(C)s2)cc1 [Compound 26, benzyl (S)-2-(((S)-1-(4-methoxyphenyl)-2-((2-methylthiazol-5-yl)amino)-2-oxoethyl)carbamoyl)pyrrolidine-1-carboxylate]	2500	< 10000	–	YES	–

These reach a lower IC50 [1]. Values come first.

IC50 [1] [nM]	IC50 [2] [nM]	IC50 (0.002 to 20 μM, FIG. 9, read-out: IC50, LPS induced NO production (stereoisomers)) [nM]	Compound	active [3]	inhibitory effect in the NO release assay (FIG. 9)
16.7	< 50	–	COc1ccc(NC(=O)[C@@H](NC(=O)[C@@H]2CCCN2C(=O)CCC2CCCC2)c2ccc(OC)cc2)cc1 [Compound 5, (S)-1-(3-cyclopentylpropanoyl)-N—((S)-1-(4-methoxyphenyl)-2-((4-methoxyphenyl)amino)-2-oxoethyl)pyrrolidine-2-carboxamide]	YES	–
20.4	< 50	–	COc1ccc(NC(=O)[C@@H](NC(=O)[C@@H]2CCCN2C(=O)CCC2CCCCC2)c2ccc(OC)cc2)cc1 [Compound 6, (S)-1-(3-cyclohexylpropanoyl)-N—((S)-1-(4-methoxyphenyl)-2-((4-methoxyphenyl)amino)-2-oxoethyl)pyrrolidine-2-carboxamide]	YES	–
44.9	< 50	–	COc1ccc(NC(=O)[C@@H](NC(=O)[C@@H]2CCCN2C(=O)CCCC2CCCCC2)c2ccc(OC)cc2)cc1 [Compound 7]	YES	–
8.37	< 50	–	COc1ccc(NC(=O)[C@@H](NC(=O)[C@@H]2CCCN2C(=O)CCC2CCCCC2)c2ccc(OCCOCCOCCOCCOCCOCCNC(=O)CCCC[C@@H]3SC[C@@H]4NC(=O)N[C@@H]43)cc2)cc1 [Compound 8, (S)-1-(3-cyclohexylpropanoyl)-N—((S)-2-((4-methoxyphenyl)amino)-2-oxo-1-(4-((19-oxo-23-((3aS,4S,6aR)-2-oxohexahydro-1H-thieno[3,4-d]imidazol-4-yl)-3,6,9,12,15-pentaoxa-18-azatricosyl)oxy)phenyl)ethyl)pyrrolidine-2-carboxamide]	YES	–
54.8	< 100	–	COc1ccc(NC(=O)[C@@H](NC(=O)[C@@H]2CCCN2C(=O)CCc2ccc(F)cc2)c2ccc(OC)cc2)cc1 [Compound 9, (S)-1-(3-(4-fluorophenyl)propanoyl)-N—((S)-1-(4-methoxyphenyl)-2-((4-methoxyphenyl)amino)-2-oxoethyl)pyrrolidine-2-carboxamide]	YES	–
65.5	< 100	–	COc1ccc([C@H](NC(=O)[C@@H]2CCCN2C(=O)OCc2ccccc2)C(=O)Nc2cc3n(n2)CCCC3)cc1 [Compound 10, benzyl(S)-2-(((S)-1-(4-methoxyphenyl)-2-oxo-2-((4,5,6,7-tetrahydropyrazolo[1,5-a]pyridin-2-yl)amino)ethyl)carbamoyl)pyrrolidine-1-carboxylate]	YES	–
71.7	< 100	–	COc1ccc(NC(=O)[C@@H](NC(=O)[C@@H]2CCCN2C(=O)COc2ccccc2)c2ccc(OC)cc2)cc1 [Compound 11, (S)—N—((S)-1-(4-methoxyphenyl)-2-((4-methoxyphenyl)amino)-2-oxoethyl)-1-(2-phenoxyacetyl)pyrrolidine-2-carboxamide]	YES	–
99.6	< 100	–	COc1ccc(NC(=O)[C@@H](NC(=O)[C@@H]2CCCN2C(=O)Cc2ccccc2)c2ccc(OC)cc2)cc1 [Compound 12, (S)—N—((S)-1-(4-methoxyphenyl)-2-((4-methoxyphenyl)amino)-2-oxoethyl)-1-(2-phenylacetyl)pyrrolidine-2-carboxamide]	YES	–
